Source: ChEMBL document CHEMBL5316353, “Antitarget, Anti-SARS-CoV-2 Leads, Drugs, and the Drug Discovery-Genetics Alliance Perspective” (J Med Chem, 2023)
Square brackets hold non-standard residues; d marks the D form. Peptide text beside a SMILES is read from it. βAla = NCCC(=O)O

Experiments:
[1] = system: Middle East respiratory syndrome-related coronavirus; test: Antiviral activity against MERS-CoV infected in human Huh-7 cells assessed as reduction of viral growth; assay type: functional, organism-based
[2] = system: Middle East respiratory syndrome-related coronavirus; assay type: functional, organism-based, Vero E6; conditions: Vero C1008
[3] = system: Middle East respiratory syndrome-related coronavirus; assay type: functional, organism-based; conditions: Calu-3
SARS-CoV-2 [4] = assay type: functional, organism-based; conditions: Severe acute respiratory syndrome coronavirus 2
[5] = target: Transmembrane protease serine 2 (Homo sapiens) (UniProt O15393); test: Binding affinity to TMPRSS2 (unknown origin) assessed as inhibition constant by fluorescence-based assay
Human coronavirus OC43 = test: Antiviral activity against HCoV-OC43 infected in human Huh-7 cells assessed as reduction of viral growth; assay type: functional, organism-based; conditions: Betacoronavirus 1, Huh-7
SARS-CoV-2 [6] = assay type: functional, organism-based; conditions: Severe acute respiratory syndrome coronavirus 2, HPAEpiC
SARS-CoV-2 [7] = assay type: functional, organism-based; conditions: Severe acute respiratory syndrome coronavirus 2, Huh-7
[8] = Binding affinity to HCoV-NL63 MPro assessed as inhibition constant; design: species or system Human coronavirus NL63
Human coronavirus 229E = test: microbe, parasite or virus in culture; conditions: MRC5
[9] = Inhibition of HCoV-229E MPro; design: species or system Human coronavirus 229E
[10] = target: Replicase polyprotein 1ab (Severe acute respiratory syndrome-related coronavirus, UniProt P0C6X7); test: Binding affinity to SARS-CoV-1 MPro assessed as inhibition constant

Chain of Transmembrane protease serine 2 (Homo sapiens) (O15393 1-255 limits assumed): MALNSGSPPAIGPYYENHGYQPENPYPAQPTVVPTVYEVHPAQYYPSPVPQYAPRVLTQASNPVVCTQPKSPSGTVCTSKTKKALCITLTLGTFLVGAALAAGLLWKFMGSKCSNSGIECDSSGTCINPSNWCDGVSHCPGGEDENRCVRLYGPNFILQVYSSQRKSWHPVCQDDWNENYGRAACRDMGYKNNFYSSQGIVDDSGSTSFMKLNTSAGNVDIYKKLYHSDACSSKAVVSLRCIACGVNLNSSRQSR
Chain of Transmembrane protease serine 2 (Homo sapiens) (O15393 256-492 limits assumed): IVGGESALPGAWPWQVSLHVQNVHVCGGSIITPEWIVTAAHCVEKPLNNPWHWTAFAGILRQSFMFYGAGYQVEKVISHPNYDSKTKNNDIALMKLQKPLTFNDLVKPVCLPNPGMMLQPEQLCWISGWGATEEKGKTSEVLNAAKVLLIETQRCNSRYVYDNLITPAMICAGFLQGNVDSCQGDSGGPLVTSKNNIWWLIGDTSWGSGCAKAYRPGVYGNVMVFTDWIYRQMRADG

CC[C@H](C)[C@H](N)C(=O)N[C@@H](CCC(=O)O)C(=O)N[C@@H](CCC(=O)O)C(=O)N[C@H](C(=O)N[C@@H](CO)C(=O)N[C@@H](CCCCN)C(=O)N[C@@H](CCCCN)C(=O)N[C@H](C(=O)N[C@@H](CCC(=O)O)C(=O)N[C@@H](CCC(=O)O)C(=O)N[C@H](C(=O)N[C@@H](CO)C(=O)N[C@@H](CCCCN)C(=O)N[C@@H](CCCCN)C(=O)N[C@H](C(=O)N[C@@H](CCC(=O)O)C(=O)N[C@@H](CCC(=O)O)C(=O)N[C@H](C(=O)N[C@@H](CO)C(=O)N[C@@H](CCCCN)C(=O)N[C@@H](CCCCN)C(=O)N[C@H](C(=O)N[C@@H](CCC(=O)O)C(=O)N[C@@H](CCC(=O)O)C(=O)N[C@H](C(=O)N[C@@H](CO)C(=O)N[C@@H](CCCCN)C(=O)N[C@@H](CCCCN)C(=O)N[C@H](C(=O)N[C@@H](CCC(=O)O)C(=O)N[C@@H](CCC(=O)O)C(=O)N[C@H](C(=O)N[C@@H](CO)C(=O)N[C@@H](CCCCN)C(=O)N[C@@H](CCCCN)C(=O)NCCC(=O)N[C@@H](CCCCN)C(=O)O)[C@@H](C)CC)[C@@H](C)CC)[C@@H](C)CC)[C@@H](C)CC)[C@@H](C)CC)[C@@H](C)CC)[C@@H](C)CC)[C@@H](C)CC)[C@@H](C)CC (H-IEEISKKIEEISKKIEEISKKIEEISKKIEEISKK[βAla]K-OH)
EC50 [1]: 100 nM

CC[C@H](C)[C@H](NC(=O)[C@H](Cc1ccc(O)cc1)NC(=O)[C@H](CO)NC(=O)[C@H](CCC(=O)O)NC(=O)[C@H](CCC(=O)O)NC(=O)[C@H](CC(C)C)NC(=O)[C@H](CCCCN)NC(=O)[C@H](CCCCN)NC(=O)[C@@H](NC(=O)[C@@H](NC(=O)[C@H](CCC(=O)O)NC(=O)[C@H](CCC(=O)O)NC(=O)[C@H](CC(C)C)NC(=O)[C@H](CCCCN)NC(=O)[C@H](CCCCN)NC(=O)[C@H](CCSC)NC(=O)[C@H](CCC(=O)O)NC(=O)[C@H](Cc1ccc(O)cc1)NC(=O)[C@H](CCC(=O)O)NC(=O)[C@H](CC(C)C)NC(=O)[C@H](CC(=O)O)NC(=O)[C@H](CC(C)C)NC(=O)[C@H](CC(C)C)NC(=O)[C@@H](NC(=O)[C@@H](NC(=O)[C@H](CC(N)=O)NC(=O)[C@@H](NC(=O)[C@H](CCC(N)=O)NC(=O)[C@@H](NC(=O)[C@H](CC(C)C)NC(=O)[C@@H](N)CO)[C@@H](C)O)[C@@H](C)CC)[C@@H](C)O)[C@@H](C)O)C(C)C)C(C)C)C(=O)N[C@@H](CC(=O)O)C(=O)N[C@@H](CC(C)C)C(=O)N[C@@H](CCCCN)C(=O)N[C@@H](CCC(=O)O)C(=O)N[C@@H](CC(C)C)C(=O)O
IC50 [2]: 550 nM | IC50 [3]: 550 nM

NC1(C(=O)N[C@@H](CCO)c2ccc(Cl)cc2)CCN(c2nc[nH]c3nccc2-3)CC1 [CAPIVASERTIB]
IC50 (SARS-CoV-2 [4]): 2330 nM

N=C(N)c1cccc(C[C@H](NS(=O)(=O)c2cccc(-c3ccc(Cl)cc3Cl)c2)C(=O)N2CCC(CCN)CC2)c1
K [5]: 0.9 nM

COc1cccc2[nH]c(C(=O)N[C@@H](CC(C)C)C(=O)N[C@@H](C[C@@H]3CCCNC3=O)C(=O)COC(=O)c3c(C)cc(C)nc3C)cc12
EC50 (Human coronavirus OC43): 90 nM

O=C[C@H](C[C@@H]1CCNC1=O)NC(=O)[C@@H]1[C@H]2CCC[C@H]2CN1C(=O)COc1ccc(Cl)cc1Cl (single isomer, unassigned)
EC50 (SARS-CoV-2 [6]): 1.1 nM | EC50 (SARS-CoV-2 [7]): 31 nM

Cc1cc(C(=O)N[C@@H](C)C(=O)N[C@H](C(=O)N[C@@H](CC(C)C)C(=O)N[C@H](/C=C/C(=O)OCc2ccccc2)C[C@@H]2CCNC2=O)C(C)C)no1
Ki [8]: 11300 nM | IC50 (Human coronavirus 229E): 140 nM

CC[C@H](C)[C@H](NC(=O)[C@H](Cc1ccc(O)cc1)NC(=O)[C@H](CO)NC(=O)[C@H](CCC(=O)O)NC(=O)[C@H](CC(N)=O)NC(=O)[C@H](CC(C)C)NC(=O)[C@H](C)NC(=O)[C@H](CCCCN)NC(=O)[C@@H](NC(=O)[C@@H](NC(=O)[C@H](CCC(N)=O)NC(=O)[C@H](CCC(N)=O)NC(=O)[C@H](CC(C)C)NC(=O)[C@H](CO)NC(=O)[C@H](CCCNC(=N)N)NC(=O)[C@H](CCSC)NC(=O)[C@H](CCC(=O)O)NC(=O)[C@H](Cc1ccc(O)cc1)NC(=O)[C@H](CCC(=O)O)NC(=O)[C@H](CC(C)C)NC(=O)[C@H](CC(=O)O)NC(=O)[C@H](CC(C)C)NC(=O)[C@H](CC(C)C)NC(=O)[C@@H](NC(=O)[C@@H](NC(=O)[C@H](CC(N)=O)NC(=O)[C@@H](NC(=O)[C@H](CCC(N)=O)NC(=O)[C@@H](NC(=O)[C@H](CC(C)C)NC(=O)[C@@H](N)CO)[C@@H](C)O)[C@@H](C)CC)[C@@H](C)O)[C@@H](C)O)C(C)C)C(C)C)C(=O)N[C@@H](CC(=O)O)C(=O)N[C@@H](CC(C)C)C(=O)N[C@@H](CCCCN)C(=O)N[C@@H](CCC(=O)O)C(=O)N[C@@H](CC(C)C)C(=O)O
IC50 [2]: 550 nM | IC50 [3]: 550 nM

CC(C)C[C@H](NC(=O)[C@H](CCC(=O)O)NC(=O)[C@H](CCC(=O)O)NC(=O)[C@H](CC(C)C)NC(=O)[C@H](CCCCN)NC(=O)[C@H](CCCCN)NC(=O)[C@H](CO)NC(=O)[C@H](CC(C)C)NC(=O)[C@H](CCC(=O)O)NC(=O)[C@H](CCC(=O)O)NC(=O)[C@H](CC(C)C)NC(=O)[C@H](CCCCN)NC(=O)[C@H](CCCCN)NC(=O)[C@H](CO)NC(=O)[C@H](CC(C)C)NC(=O)[C@H](CCC(=O)O)NC(=O)[C@H](CCC(=O)O)NC(=O)[C@H](CC(C)C)NC(=O)[C@H](CCCCN)NC(=O)[C@H](CCCCN)NC(=O)[C@H](CO)NC(=O)[C@H](CC(C)C)NC(=O)[C@H](CCC(=O)O)NC(=O)[C@H](CCC(=O)O)NC(=O)[C@H](CC(C)C)NC(=O)[C@H](CCCCN)NC(=O)[C@H](CCCCN)NC(=O)[C@H](CO)NC(=O)[C@H](CC(C)C)NC(=O)[C@H](CCC(=O)O)NC(=O)[C@H](CCC(=O)O)NC(=O)[C@@H](N)CC(C)C)C(=O)N[C@@H](CO)C(=O)N[C@@H](CCCCN)C(=O)N[C@@H](CCCCN)C(=O)NCCC(=O)N[C@@H](CCCCN)C(=O)O (H-LEELSKKLEELSKKLEELSKKLEELSKKLEELSKK[βAla]K-OH)
EC50 [1]: 240 nM

COc1cccc2[nH]c(C(=O)N[C@@H](CC(C)C)C(=O)N[C@@H](C[C@@H]3CCNC3=O)C(=O)CO)cc12 [PF-00835231]
IC50 [9]: 4 nM | Ki [10]: 4.94 nM
